Assay results published in the supplement of paper PMC4862054.

test system: CAL-120; experiment: normalised response (% of control), CellTox Green; higher = less cell death (100 = DMSO, 0 = benzethonium chloride kill control); settings: incubation time: 72 h
How it was run: (§1)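 The table gives the normalised signal for a single concentration in each entry. Breast cancer cell lines were seeded (20 µl suspension) into 384-well plates holding compound at 5 concentrations in 10-fold steps over a compound-specific 10,000-fold range and incubated 72 h, then read for CellTox Green fluorescence (485/520 nm) and CellTiter-Glo luminescence. Normalisation on each plate used 0.1 % DMSO (100) and a positive kill control (0).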

Structure (SMILES) | normalised response [%]
CCCCC/C=C/C=C1/C(=O)C=C[C@@H]1C/C=C\CCCC(=O)O [15D-PGJ2] (8 nM) | 99.3
CC(=O)OC[C@H]1O[C@@H]([S-])[C@H](OC(C)=O)[C@@H](OC(C)=O)[C@@H]1OC(C)=O.CCP(CC)CC.[Au+] [Auranofin] (25 nM) | 110
Cc1c(CN2CCN(C(=O)[C@H](C)O)CC2)sc2c(N3CCOCC3)nc(-c3cnc(N)nc3)nc12 [GDC-0980] (100 nM) | 102
Cc1cccc(-c2nn3c(c2-c2ccnc4ccc(C(N)=O)cc24)CCC3)n1 [Galunisertib] (10 nM) | 105
O=C1c2c(O)ccc(O)c2C(=O)c2c(NCCNCCO)ccc(NCCNCCO)c21 [Mitoxantrone] (10 nM) | 101
COc1nc(N)nc2c1ncn2[C@@H]1O[C@H](CO)[C@@H](O)[C@@H]1O [Nelarabine] (100 nM) | 98.4
O=C(CCBr)N1CCN(C(=O)CCBr)CC1 [Pipobroman] (100 nM) | 101
CC(C)N(CCCNC(=O)Nc1ccc(C(C)(C)C)cc1)C[C@H]1O[C@@H](n2cc(Br)c3c(N)ncnc32)[C@H](O)[C@@H]1O [SGC0946] (100 nM) | 95.6

test system: CAL-51; experiment: as above; settings: incubation time: 72 h
How it was run: as §1

Structure (SMILES) | normalised response [%]
Cc1c(Cn2c(C)nc3c(C(=O)O)cc(N4CCOCC4)cc32)cccc1C(F)(F)F (100 nM) | 86.7
CCCCC/C=C/C=C1/C(=O)C=C[C@@H]1C/C=C\CCCC(=O)O [15D-PGJ2] (8 nM) | 107
CC(=O)OC[C@H]1O[C@@H]([S-])[C@H](OC(C)=O)[C@@H](OC(C)=O)[C@@H]1OC(C)=O.CCP(CC)CC.[Au+] [Auranofin] (25 nM) | 100
Cc1c(CN2CCN(C(=O)[C@H](C)O)CC2)sc2c(N3CCOCC3)nc(-c3cnc(N)nc3)nc12 [GDC-0980] (100 nM) | 112
Cc1cccc(-c2nn3c(c2-c2ccnc4ccc(C(N)=O)cc24)CCC3)n1 [Galunisertib] (10 nM) | 114
O=C1c2c(O)ccc(O)c2C(=O)c2c(NCCNCCO)ccc(NCCNCCO)c21 [Mitoxantrone] (10 nM) | 104
COc1nc(N)nc2c1ncn2[C@@H]1O[C@H](CO)[C@@H](O)[C@@H]1O [Nelarabine] (100 nM) | 93.8
O=C(CCBr)N1CCN(C(=O)CCBr)CC1 [Pipobroman] (100 nM) | 101
CC(C)N(CCCNC(=O)Nc1ccc(C(C)(C)C)cc1)C[C@H]1O[C@@H](n2cc(Br)c3c(N)ncnc32)[C@H](O)[C@@H]1O [SGC0946] (100 nM) | 95.6

test system: DU-4475; experiment: as above; settings: incubation time: 72 h
How it was run: as §1

Structure (SMILES) | normalised response [%]
Cc1c(Cn2c(C)nc3c(C(=O)O)cc(N4CCOCC4)cc32)cccc1C(F)(F)F (100 nM) | 109
CCCCC/C=C/C=C1/C(=O)C=C[C@@H]1C/C=C\CCCC(=O)O [15D-PGJ2] (8 nM) | 110
CC(=O)OC[C@H]1O[C@@H]([S-])[C@H](OC(C)=O)[C@@H](OC(C)=O)[C@@H]1OC(C)=O.CCP(CC)CC.[Au+] [Auranofin] (25 nM) | 112
Cc1c(CN2CCN(C(=O)[C@H](C)O)CC2)sc2c(N3CCOCC3)nc(-c3cnc(N)nc3)nc12 [GDC-0980] (100 nM) | 99.9
Cc1cccc(-c2nn3c(c2-c2ccnc4ccc(C(N)=O)cc24)CCC3)n1 [Galunisertib] (10 nM) | 109
O=C1c2c(O)ccc(O)c2C(=O)c2c(NCCNCCO)ccc(NCCNCCO)c21 [Mitoxantrone] (10 nM) | 99.9
COc1nc(N)nc2c1ncn2[C@@H]1O[C@H](CO)[C@@H](O)[C@@H]1O [Nelarabine] (100 nM) | 95.2
O=C(CCBr)N1CCN(C(=O)CCBr)CC1 [Pipobroman] (100 nM) | 101
CC(C)N(CCCNC(=O)Nc1ccc(C(C)(C)C)cc1)C[C@H]1O[C@@H](n2cc(Br)c3c(N)ncnc32)[C@H](O)[C@@H]1O [SGC0946] (100 nM) | 98.8

test system: HCC1937; experiment: as above; settings: incubation time: 72 h
How it was run: as §1

Structure (SMILES) | normalised response [%]
Cc1c(Cn2c(C)nc3c(C(=O)O)cc(N4CCOCC4)cc32)cccc1C(F)(F)F (100 nM) | 78
CCCCC/C=C/C=C1/C(=O)C=C[C@@H]1C/C=C\CCCC(=O)O [15D-PGJ2] (8 nM) | 101
CC(=O)OC[C@H]1O[C@@H]([S-])[C@H](OC(C)=O)[C@@H](OC(C)=O)[C@@H]1OC(C)=O.CCP(CC)CC.[Au+] [Auranofin] (25 nM) | 113
Cc1c(CN2CCN(C(=O)[C@H](C)O)CC2)sc2c(N3CCOCC3)nc(-c3cnc(N)nc3)nc12 [GDC-0980] (100 nM) | 114
Cc1cccc(-c2nn3c(c2-c2ccnc4ccc(C(N)=O)cc24)CCC3)n1 [Galunisertib] (10 nM) | 123
O=C1c2c(O)ccc(O)c2C(=O)c2c(NCCNCCO)ccc(NCCNCCO)c21 [Mitoxantrone] (10 nM) | 91.8
COc1nc(N)nc2c1ncn2[C@@H]1O[C@H](CO)[C@@H](O)[C@@H]1O [Nelarabine] (100 nM) | 88.7

test system: HCC1143; experiment: as above; settings: incubation time: 72 h
How it was run: as §1

Structure (SMILES) | normalised response [%]
Cc1c(Cn2c(C)nc3c(C(=O)O)cc(N4CCOCC4)cc32)cccc1C(F)(F)F (100 nM) | 113
CCCCC/C=C/C=C1/C(=O)C=C[C@@H]1C/C=C\CCCC(=O)O [15D-PGJ2] (8 nM) | 105
CC(=O)OC[C@H]1O[C@@H]([S-])[C@H](OC(C)=O)[C@@H](OC(C)=O)[C@@H]1OC(C)=O.CCP(CC)CC.[Au+] [Auranofin] (25 nM) | 88.9
Cc1c(CN2CCN(C(=O)[C@H](C)O)CC2)sc2c(N3CCOCC3)nc(-c3cnc(N)nc3)nc12 [GDC-0980] (100 nM) | 113
Cc1cccc(-c2nn3c(c2-c2ccnc4ccc(C(N)=O)cc24)CCC3)n1 [Galunisertib] (10 nM) | 70.5
O=C1c2c(O)ccc(O)c2C(=O)c2c(NCCNCCO)ccc(NCCNCCO)c21 [Mitoxantrone] (10 nM) | 111
O=C(CCBr)N1CCN(C(=O)CCBr)CC1 [Pipobroman] (100 nM) | 108
CC(C)N(CCCNC(=O)Nc1ccc(C(C)(C)C)cc1)C[C@H]1O[C@@H](n2cc(Br)c3c(N)ncnc32)[C@H](O)[C@@H]1O [SGC0946] (100 nM) | 88.1

test system: BT-549; experiment: as above; settings: incubation time: 72 h
How it was run: as §1

Structure (SMILES) | normalised response [%]
Cc1c(Cn2c(C)nc3c(C(=O)O)cc(N4CCOCC4)cc32)cccc1C(F)(F)F (100 nM) | 111
CCCCC/C=C/C=C1/C(=O)C=C[C@@H]1C/C=C\CCCC(=O)O [15D-PGJ2] (8 nM) | 112
CC(=O)OC[C@H]1O[C@@H]([S-])[C@H](OC(C)=O)[C@@H](OC(C)=O)[C@@H]1OC(C)=O.CCP(CC)CC.[Au+] [Auranofin] (25 nM) | 110
Cc1c(CN2CCN(C(=O)[C@H](C)O)CC2)sc2c(N3CCOCC3)nc(-c3cnc(N)nc3)nc12 [GDC-0980] (100 nM) | 106
Cc1cccc(-c2nn3c(c2-c2ccnc4ccc(C(N)=O)cc24)CCC3)n1 [Galunisertib] (10 nM) | 114
O=C1c2c(O)ccc(O)c2C(=O)c2c(NCCNCCO)ccc(NCCNCCO)c21 [Mitoxantrone] (10 nM) | 94.3
COc1nc(N)nc2c1ncn2[C@@H]1O[C@H](CO)[C@@H](O)[C@@H]1O [Nelarabine] (100 nM) | 98.7
O=C(CCBr)N1CCN(C(=O)CCBr)CC1 [Pipobroman] (100 nM) | 70.2
CC(C)N(CCCNC(=O)Nc1ccc(C(C)(C)C)cc1)C[C@H]1O[C@@H](n2cc(Br)c3c(N)ncnc32)[C@H](O)[C@@H]1O [SGC0946] (100 nM) | 101

test system: CAL-85-1; experiment: as above; settings: incubation time: 72 h
How it was run: as §1

Structure (SMILES) | normalised response [%]
Cc1c(Cn2c(C)nc3c(C(=O)O)cc(N4CCOCC4)cc32)cccc1C(F)(F)F (100 nM) | 104
CCCCC/C=C/C=C1/C(=O)C=C[C@@H]1C/C=C\CCCC(=O)O [15D-PGJ2] (8 nM) | 109
CC(=O)OC[C@H]1O[C@@H]([S-])[C@H](OC(C)=O)[C@@H](OC(C)=O)[C@@H]1OC(C)=O.CCP(CC)CC.[Au+] [Auranofin] (25 nM) | 122
Cc1c(CN2CCN(C(=O)[C@H](C)O)CC2)sc2c(N3CCOCC3)nc(-c3cnc(N)nc3)nc12 [GDC-0980] (100 nM) | 106
Cc1cccc(-c2nn3c(c2-c2ccnc4ccc(C(N)=O)cc24)CCC3)n1 [Galunisertib] (10 nM) | 107
O=C1c2c(O)ccc(O)c2C(=O)c2c(NCCNCCO)ccc(NCCNCCO)c21 [Mitoxantrone] (10 nM) | 96.2
COc1nc(N)nc2c1ncn2[C@@H]1O[C@H](CO)[C@@H](O)[C@@H]1O [Nelarabine] (100 nM) | 90.6
O=C(CCBr)N1CCN(C(=O)CCBr)CC1 [Pipobroman] (100 nM) | 109
CC(C)N(CCCNC(=O)Nc1ccc(C(C)(C)C)cc1)C[C@H]1O[C@@H](n2cc(Br)c3c(N)ncnc32)[C@H](O)[C@@H]1O [SGC0946] (100 nM) | 103

test system: HDQ-P1; experiment: as above; settings: incubation time: 72 h
How it was run: as §1

Structure (SMILES) | normalised response [%]
CC(=O)OC[C@H]1O[C@@H]([S-])[C@H](OC(C)=O)[C@@H](OC(C)=O)[C@@H]1OC(C)=O.CCP(CC)CC.[Au+] [Auranofin] (25 nM) | 93.8
Cc1c(CN2CCN(C(=O)[C@H](C)O)CC2)sc2c(N3CCOCC3)nc(-c3cnc(N)nc3)nc12 [GDC-0980] (100 nM) | 110
O=C(CCBr)N1CCN(C(=O)CCBr)CC1 [Pipobroman] (100 nM) | 107

test system: HCC1599; experiment: as above; settings: incubation time: 72 h
How it was run: as §1

Structure (SMILES) | normalised response [%]
Cc1c(Cn2c(C)nc3c(C(=O)O)cc(N4CCOCC4)cc32)cccc1C(F)(F)F (100 nM) | 107
CCCCC/C=C/C=C1/C(=O)C=C[C@@H]1C/C=C\CCCC(=O)O [15D-PGJ2] (8 nM) | 111
CC(=O)OC[C@H]1O[C@@H]([S-])[C@H](OC(C)=O)[C@@H](OC(C)=O)[C@@H]1OC(C)=O.CCP(CC)CC.[Au+] [Auranofin] (25 nM) | 111
Cc1c(CN2CCN(C(=O)[C@H](C)O)CC2)sc2c(N3CCOCC3)nc(-c3cnc(N)nc3)nc12 [GDC-0980] (100 nM) | 106
Cc1cccc(-c2nn3c(c2-c2ccnc4ccc(C(N)=O)cc24)CCC3)n1 [Galunisertib] (10 nM) | 116
O=C1c2c(O)ccc(O)c2C(=O)c2c(NCCNCCO)ccc(NCCNCCO)c21 [Mitoxantrone] (10 nM) | 96.5
COc1nc(N)nc2c1ncn2[C@@H]1O[C@H](CO)[C@@H](O)[C@@H]1O [Nelarabine] (100 nM) | 87
O=C(CCBr)N1CCN(C(=O)CCBr)CC1 [Pipobroman] (100 nM) | 96.6
CC(C)N(CCCNC(=O)Nc1ccc(C(C)(C)C)cc1)C[C@H]1O[C@@H](n2cc(Br)c3c(N)ncnc32)[C@H](O)[C@@H]1O [SGC0946] (100 nM) | 96.4

test system: MDA-MB-453; experiment: as above; settings: incubation time: 72 h
How it was run: as §1

Structure (SMILES) | normalised response [%]
Cc1c(Cn2c(C)nc3c(C(=O)O)cc(N4CCOCC4)cc32)cccc1C(F)(F)F (100 nM) | 111
CC(=O)OC[C@H]1O[C@@H]([S-])[C@H](OC(C)=O)[C@@H](OC(C)=O)[C@@H]1OC(C)=O.CCP(CC)CC.[Au+] [Auranofin] (25 nM) | 109
Cc1c(CN2CCN(C(=O)[C@H](C)O)CC2)sc2c(N3CCOCC3)nc(-c3cnc(N)nc3)nc12 [GDC-0980] (100 nM) | 98
Cc1cccc(-c2nn3c(c2-c2ccnc4ccc(C(N)=O)cc24)CCC3)n1 [Galunisertib] (10 nM) | 103
O=C1c2c(O)ccc(O)c2C(=O)c2c(NCCNCCO)ccc(NCCNCCO)c21 [Mitoxantrone] (10 nM) | 107
COc1nc(N)nc2c1ncn2[C@@H]1O[C@H](CO)[C@@H](O)[C@@H]1O [Nelarabine] (100 nM) | 97.5
CC(C)N(CCCNC(=O)Nc1ccc(C(C)(C)C)cc1)C[C@H]1O[C@@H](n2cc(Br)c3c(N)ncnc32)[C@H](O)[C@@H]1O [SGC0946] (100 nM) | 99.1
